# From US7153881B2, “Compounds acting as melanocortin receptor ligands” (Acure Pharma AB, priority 2001, dated 2006)
# What was measured:
# MC4 [1] = target: T1, MC4 (Homo sapiens, UniProt P32245); assay: Affinity for the MC4-receptors, binding assay using I125-NDP-αMSH as ligand
# Protocol: (§1) Test 2. Affinity for the MC3-receptors, the MC4-receptors and the MC5-receptors
# (§2) The binding assays were carried out essentially as described by Szardenings et al, J Biol Chem 1997; 272; 27943–27948 and Schiöth et al, FEBS Lett 1997; 410; 223–228 using I125-NDP-αMSH as ligand.
# MC4 [2] = target: T1, MC4; assay: Stimulation of cAMP, MC4; assay type: cell-based; conditions: response given relative to α-MSH
# Protocol: (§3) The stimulation of cAMP was carried out essentially as described by Schiöth et al, Br J Pharmacol 1998; 124; 75–82, however, the response is given relative to α-MSH.
# MC3 [3] = target: T2, MC3 (Homo sapiens, UniProt P41968); assay: Affinity for the MC3-receptors, binding assay using I125-NDP-αMSH as ligand
# Protocol: as §1, §2
# MC5-receptors = MC5-receptors (Homo sapiens, UniProt P33032); assay: Affinity for the MC5-receptors, binding assay using I125-NDP-αMSH as ligand
# Protocol: as §1, §2
# MC3 [4] = target: T2, MC3; assay: Stimulation of cAMP, MC3; assay type: cell-based; conditions: response given relative to α-MSH
# Protocol: as §3
# MC1 = MC1 (Homo sapiens, UniProt Q01726); assay: Stimulation of cAMP, MC1; assay type: cell-based; conditions: response given relative to α-MSH
# Protocol: as §3
# T2 sequence (P41968 whole entry): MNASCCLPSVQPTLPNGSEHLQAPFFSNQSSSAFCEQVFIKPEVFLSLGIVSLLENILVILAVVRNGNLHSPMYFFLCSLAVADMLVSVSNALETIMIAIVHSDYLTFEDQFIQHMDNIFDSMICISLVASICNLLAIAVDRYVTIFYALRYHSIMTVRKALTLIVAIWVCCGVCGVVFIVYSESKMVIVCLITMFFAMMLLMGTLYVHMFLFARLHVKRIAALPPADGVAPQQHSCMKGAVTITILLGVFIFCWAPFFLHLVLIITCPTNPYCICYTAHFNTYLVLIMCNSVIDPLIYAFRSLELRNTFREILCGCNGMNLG
# MC1, sequence (Q01726 whole entry): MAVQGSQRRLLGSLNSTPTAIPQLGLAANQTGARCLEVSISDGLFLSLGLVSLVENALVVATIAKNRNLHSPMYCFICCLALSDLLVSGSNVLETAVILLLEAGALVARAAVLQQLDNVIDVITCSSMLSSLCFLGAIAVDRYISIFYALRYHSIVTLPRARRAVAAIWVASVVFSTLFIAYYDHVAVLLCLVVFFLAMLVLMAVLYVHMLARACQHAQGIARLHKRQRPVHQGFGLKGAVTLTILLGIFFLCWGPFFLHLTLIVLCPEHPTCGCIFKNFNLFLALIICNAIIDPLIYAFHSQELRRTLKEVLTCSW
# T1 sequence (P32245 whole entry): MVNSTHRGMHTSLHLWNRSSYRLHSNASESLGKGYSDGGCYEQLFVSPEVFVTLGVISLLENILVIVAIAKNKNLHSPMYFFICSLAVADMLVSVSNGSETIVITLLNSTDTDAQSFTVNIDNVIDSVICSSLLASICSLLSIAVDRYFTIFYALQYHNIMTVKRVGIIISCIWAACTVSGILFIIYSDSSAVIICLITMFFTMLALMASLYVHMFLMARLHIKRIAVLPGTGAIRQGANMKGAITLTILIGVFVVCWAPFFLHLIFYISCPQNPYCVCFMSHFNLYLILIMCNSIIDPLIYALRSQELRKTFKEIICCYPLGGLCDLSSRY
# MC5-receptors, sequence (P33032 whole entry): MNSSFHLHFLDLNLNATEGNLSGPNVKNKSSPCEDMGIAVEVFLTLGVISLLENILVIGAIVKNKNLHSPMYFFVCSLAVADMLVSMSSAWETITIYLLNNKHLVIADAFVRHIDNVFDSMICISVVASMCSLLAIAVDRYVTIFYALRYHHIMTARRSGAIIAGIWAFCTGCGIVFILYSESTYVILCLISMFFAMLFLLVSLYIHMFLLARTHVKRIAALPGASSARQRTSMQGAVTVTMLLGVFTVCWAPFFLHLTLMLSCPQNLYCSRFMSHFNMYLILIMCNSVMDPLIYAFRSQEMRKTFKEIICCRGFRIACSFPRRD
Compound,melting point [°C],also measured
"COc1ccc(C=NNC(=N)NCc2ccccc2)c(Cl)c1OC [Compound 1, N-(2-chloro-3,4-dimethoxybenzylideneamino)-N′-benzylguanidine]",215 to 217,–
"COc1ccc(C=NNC(=N)NCCc2ccccc2)cc1 [Compound 10, N-(4-methoxybenzylideneamino)-N′-(2-phenylethyl)guanidine]",126 to 128,–
"N=C(NCc1cccc2ccccc12)NN=Cc1ccncc1 [Compound 11, N-(pyrid-4-yl-methylideneamino)-N′-(naphthalen-1-yl-methyl)guanidine]",260 to 262,–
"COc1ccc(C=NNC(=N)Nc2ccccc2)c(Cl)c1OC [Compound 16, N-(2-chloro-3,4-dimethoxybenzylideneamino)-N′-phenylguanidine]",179 to 181,–
"N=C(NCCc1ccccc1)NN=Cc1ccc([N+](=O)[O-])cc1 [Compound 20, N-(4-nitrobenzylideneamino)-N′-(2-phenylethyl)guanidine]",241 to 243,–
"N=C(NCCc1ccccc1)NN=Cc1ccc2ccccc2c1 [Compound 21, N-(naphthalen-2-yl-methylideneamino)-N′-(2-phenylethyl)guanidine]",244 to 246,–
"N=C(NN=Cc1ccc2ccccc2c1)Nc1ccc2ccccc2c1 [Compound 23, N-(naphthalen-2-yl-methylideneamino)-N′-naphthalen-2-ylguanidine]",218 to 220,–
"N=C(NCc1ccccc1)NN=Cc1cccn1-c1ccc(Cl)cc1 [Compound 29, N-[1-(4-Chlorophenyl) 1H-pyrrol-2-ylmethyleneamino]-N′-benzylguanidine]",190 to 192,Ki (MC4 [1]): 0.61 µM; cAMP agonist/plateau stim. α-MSH (%) MC4 (MC4 [2]): 111%; Ki (MC5-receptors): 1.32 µM; cAMP agonist/plateau stim. α-MSH (%) MC3 (MC3 [4]): 3%; cAMP agonist/plateau stim. α-MSH (%) MC1 (MC1): 10%
N=C(NCCc1ccccc1)NN=CC=Cc1ccccc1 [Compound 33],175 to 177,Ki (MC4 [1]): 3.59 µM; cAMP agonist/plateau stim. α-MSH (%) MC4 (MC4 [2]): 161%; Ki (MC3 [3]): 5.36 µM; Ki (MC5-receptors): 8.23 µM; cAMP agonist/plateau stim. α-MSH (%) MC3 (MC3 [4]): 4%; cAMP agonist/plateau stim. α-MSH (%) MC1 (MC1): 8%
"N=C(NN=Cc1cccn1-c1ccc(Cl)cc1)NN=Cc1cccn1-c1ccc(Cl)cc1 [Compound 34, N,N′-Di-(1-(4-Chlorophenyl)-1H-pyrrol-2-ylmethyleneamino)guanidine]",221 to 223,–
"CNC(=N)NN=Cc1cc([N+](=O)[O-])ccc1F [Compound 35, N-(2-Fluoro-5-nitrobenzylideneamino)-N′-methylguanidine]",217 to 219,–

# Second part, led by results:
melting point [°C],Compound,also measured
180 to 190,N=C(NN=Cc1ccc([N+](=O)[O-])cc1[N+](=O)[O-])Nc1ccccc1,–
167 to 169,"COc1ccc(C=NNC(=Nc2ccccc2)NO)c(Cl)c1OC [Compound 2, N-(2-chloro-3,4-dimethoxybenzylideneamino)-N′-hydroxy-N″-phenylguanidine]",–
207 to 209,"N=C(NCCc1ccccc1)NN=Cc1c[nH]c2ccccc12 [Compound 12, N-(1H-indol-3-ylmethylideneamino)-N′-(2-phenylethyl)guanidine]",–
213 to 215,"N=C(N)N(Cc1cccc2ccccc12)N=Cc1c[nH]c2ccccc12 [Compound 13, N-(1H-indol-3-yl-methylideneamino)-N-(naphthalen-1-ylmethyl)guanidine]",–
296 to 298,"N=C(NN=Cc1c[nH]c2ccccc12)NN=Cc1c[nH]c2ccccc12 [Compound 14, N,N′-bis[1H-indol-3-yl-methylideneamino]guanidine]",–
191 to 193,"N=C(NN=Cc1cc([N+](=O)[O-])ccc1F)Nc1ccccc1 [Compound 17, N-(2-fluoro-5-nitrobenzylideneamino)-N′-phenylguanidine]",–
192 to 194,"N=C(NCc1ccccc1)NN=Cc1ccc(O)cc1 [Compound 18, N-(4-hydroxybenzylideneamino)-N′-benzylguanidine]",–
239 to 241,"N=C(NCc1ccccc1)NN=Cc1ccc([N+](=O)[O-])cc1 [Compound 24, N-(4-Nitrobenzylideneamino)-N′-benzylguanidine]",–
154 to 155,"N=C(NCCc1ccccc1)NN=Cc1ccccc1Br [Compound 27, N-(2-Bromobenzylideneamino)-N′-phenethylguanidine]",Ki (MC4 [1]): 1.35 µM; cAMP agonist/plateau stim. α-MSH (%) MC4 (MC4 [2]): 97%; Ki (MC3 [3]): 7.96 µM; Ki (MC5-receptors): 5.8 µM; cAMP agonist/plateau stim. α-MSH (%) MC3 (MC3 [4]): 9%; cAMP agonist/plateau stim. α-MSH (%) MC1 (MC1): 12%
149 to 152,"N=C(NN=Cc1ccccc1Br)Nc1ccccc1 [Compound 28, N-(2-Bromobenzylideneamino)-N′-phenylguanidine]",–
253 to 255,"N=C(NN=Cc1cccc2ccccc12)NN=Cc1cccc2ccccc12 [Compound 30, N,N′-Di-(naphthalen-1-ylmethyleneamino)guanidine]",–
228 to 230,"COc1ccc(C=NNC(=N)NN=Cc2ccc(OC)c(OC)c2Cl)c(Cl)c1OC [Compound 32, N,N′-Di-(2-Chloro-3,4-Dimethoxybenzylideneamino)guanidine]",–
207 to 210,"CNC(=N)NN=Cc1ccc(OC)c(OC)c1Cl [Compound 37, N-(2-Chloro-3,4-dimethoxybenzylideneamino)-N′-methylguanidine]",–
